The text below walks through data of patent US20140296257A1, “High-Loading Water-Soluable Carrier-Linked Prodrugs” (Ascendis Pharma A/S, priority 2011, published 2014).

The conditions of the assay: pH 7.4 buffer, 37° C., released paliperidone plotted against time. The method, then: Sample was incubated at 37° C. At various time points aliquots were analyzed by UPLC and the amount of released paliperidone was plotted against time. […] Curve fitting software was used to determine half life time of drug release from the respective conjugate.

Regarding “4-arm PEG 20 kDa-octapaliperidone [Conjugate 5]”, the Drug release kinetics entry is on record as “first order kinetics”.
